Test results reported in paper PMC7756784 (Chemistry (Weinheim an Der Bergstrasse, Germany), 2020).

Target: human galectin-1 (Gal-1) (Homo sapiens, UniProt P09382)
Experiment: ITC, single-site model
Assay type: binding
Conditions: 50 mM sodium phosphate, 150 mM NaCl, pH 7.4, 1 mM TCEP

Sequence of human galectin-1 (Gal-1) (P09382 2-135): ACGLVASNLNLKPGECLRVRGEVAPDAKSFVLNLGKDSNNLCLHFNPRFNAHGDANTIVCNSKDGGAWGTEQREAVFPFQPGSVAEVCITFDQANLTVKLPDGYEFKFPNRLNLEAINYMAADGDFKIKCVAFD

Row | Kd | SMILES
1 | 379 µM | CC(=O)N[C@H]1C(O)O[C@H](CO)[C@@H](O[C@@H]2O[C@H](CO)[C@H](O)[C@H](O[C@H]3O[C@H](CO)[C@H](O)[C@H](O)[C@H]3O)[C@H]2O[C@@H]2O[C@@H](C)[C@@H](O)[C@@H](O)[C@@H]2O)[C@@H]1O (some centres unmarked) [compound 4, B type‐II]
2 | 319 µM | CC(=O)N[C@H]1C(O)O[C@H](CO)[C@@H](O[C@@H]2O[C@H](CO)[C@H](O)[C@H](O)[C@H]2O[C@@H]2O[C@@H](C)[C@@H](O)[C@@H](O)[C@@H]2O)[C@@H]1O (some centres unmarked) [compound 3, H type‐II]
